Data reported in patent publication US10792295B2, “Compositions for management of Helicobacter pylori infections” (SAMI LABS LIMITED, priority 2017, dated 2020).

Assays:
Type in all cases: cell-based
[1] = system: Helicobacter pylori ATCC 43504; assay: Well diffusion method, zones of inhibition; conditions: ATCC43504, 72 h, H. pylori ATCC 43504, 1000 μg/well, 3 days, 37° C., microaerobic
Experimental: (§1) Helicobacter pylori ATCC 43504 and ATCC 700392 were purchased from the American Type Culture Collection (ATCC, Manassas, Va., USA). Cultures were grown in brain heart infusion (BHI) agar/broth (HiMedia, Mumbai India) supplemented with 7% (v/v) sheep blood or fetal bovine serum and incubated at 37° C. under microaerobic conditions (Na, 85%; 02, 5%; CO2, 10%) using an anaerobic chamber (Imset, Mumbai, India). Bacillus coagulans MTCC 5856 was grown in MRS media by adding inoculum (5% v/v) to the MRS broth and incubated at 37° C. for 24 h. After 24 h, the culture was centrifuged (5,000×g) to remove the cells and the supernatant was collected, concentrated 10-fold by lyophilization and filter sterilized through a 0.22 micron filter (Millipore, India). The cell-free supernatant was tested against H. pylori and 10-fold concentrated supernatant was also tested against H. pylori ATCC 43504 and ATCC 700392. Similar to above, BHI agar plates supplemented with 7% (v/v) fetal bovine serum were prepared containing a strain of Helicobacter pylori ATCC 43504 or ATCC 700392. Further, well was made in the BHI agar plates containing Helicobacter pylori ATCC 43504 or ATCC 700392. […] After incubation, the antibacterial activities were evaluated by measuring a diameter of the inhibition zone. […]

[2] = system: Helicobacter pylori ATCC 700392; assay: Well diffusion method, zones of inhibition; conditions: ATCC700392, 72 h, H. pylori ATCC 700392, 1000 μg/well, 3 days, 37° C., microaerobic
Experimental: as §1

[3] = system: Helicobacter pylori ATCC 43504; assay: Minimum inhibitory concentration (MIC) determination, broth microdilution; conditions: H. pylori ATCC 43504; 72 h, BHI broth with 7% FBS, no turbidity
Experimental: (§2) Helicobacter pylori ATCC 43504 and ATCC 700392 were purchased from the American Type Culture Collection (ATCC, Manassas, Va., USA). Cultures were grown in brain heart infusion (BHI) agar/broth (HiMedia, Mumbai India) supplemented with 7% (v/v) sheep blood or fetal bovine serum and incubated at 37° C. under microaerobic conditions (Na, 85%; 02, 5%; CO2, 10%) using an anaerobic chamber (Imset, Mumbai, India). Bacillus coagulans MTCC 5856 was grown in MRS media by adding inoculum (5% v/v) to the MRS broth and incubated at 37° C. for 24 h. After 24 h, the culture was centrifuged (5,000×g) to remove the cells and the supernatant was collected, concentrated 10-fold by lyophilization and filter sterilized through a 0.22 micron filter (Millipore, India). The cell-free supernatant was tested against H. pylori and 10-fold concentrated supernatant was also tested against H. pylori ATCC 43504 and ATCC 700392. The MICs of curcumin, β-glucogallin and mucic acid gallates extract and Piperine extract were determined as per the guidelines of Clinical and Laboratory Standards Institute (formerly the National Committee for Clinical Laboratory Standards). […] After incubation, plates were visually read for the absence or presence of turbidity. The minimum concentration of the compound concentration showing no turbidity was recorded as MIC.

[4] = system: Helicobacter pylori ATCC 700392; assay: as above; conditions: H. pylori ATCC 700392; 72 h, BHI broth with 7% FBS, no turbidity
Experimental: as §2

MIC range [3]: 125 to 250 µg/mL | MIC range [4]: 125 to 250 µg/mL
SMILES: COc1cc(/C=C/C(=O)CC(=O)/C=C/c2ccc(O)c(OC)c2)ccc1O [Curcumin]
zone of inhibition at 1000 µg/disc [1]: 13 ± 1.2 mm | zone of inhibition at 1000 µg/disc [2]: 14 ± 1.2 mm
